Tests used:
RAW264.7 macrophages = test: Foam cell formation (ox-LDL, BODIPY 493/503 staining) in RAW264.7 macrophages; format: cell-based
Procedure: RAW264.7 cells were obtained from the National Infrastructure of Cell Line Resource of Beijing, China, and the cells used for the experiment were cultured for at least three passages. Dulbecco’s Modified Eagle’s Medium (DMEM)-F12 medium containing 10% fetal bovine serum (FBS) was employed to culture the RAW264.7 cells. RAW264.7 cells were incubated at 37°C with 5% carbon dioxide. The RAW264.7 cells were plated at 2.5×10^5 cells/well (6-well plates), 6.0×10^4 cells/well (24-well plates), and 10^4 cells/well (96-well plates). The RAW264.7 cells were plated and grown overnight; then the medium was removed and fresh DMEM-F12 contained with 0.1% DMSO (control; n=3 ) or TPHP at the concentrations of 1–20,000 nM ( n=3 per group) was added. […] Then the cells were used for the quantitative reverse transcription (qRT)-PCR, cellular cholesterol efflux assay, and foam cell formation experiment.
RAW264.7 cells or mouse peritoneal macrophages were plated in 24-well plates at 6.0×10^4 cells/well and grown overnight. Then the medium was removed and fresh DMEM-F12 containing 10% FBS, 20μg/mL oxidized low-density lipoprotein (ox-LDL), and 0.1% DMSO (control; n=3 ) or TPHP at the concentration of 1–20,000 nM ( n=3 per group) was added. The cells were washed with PBS, followed by fixing in 4% paraformaldehyde for 30 min and staining with boron-dipyrromethene (BODIPY) 493/503 ( 20μg/mL ) and 4′,6-diamidino-2-phenylindole (DAPI; 100 ng/mL ) for 10 min. Foam cell formation was analyzed by high-content microscopy using ImageXpress® Micro XL (Molecular Devices). From each well, 25 image fields were scanned, and MetaXpress® (Molecular Devices) was used to quantify compartmentalized changes in the fluorescence of each cell.

[1] = test system: mouse peritoneal macrophages; test: NBD-cholesterol efflux in peritoneal macrophages isolated from exposed C57BL/6 mice; format: in vivo; settings: 200 mg/kg BW for 7 d
Procedure: RAW264.7 cells or mouse peritoneal macrophages were plated in 96-well plates at 10^4 cells/well and cultured with DMEM-F12 containing 10% FBS and 1μg/mL 22-[N-(7-nitrobenz-2-oxa-1,3-diazol-4-yl)amino]-23,24-bisnor-5-cholen-3β-Ol (NBD-cholesterol) for 24 h. Subsequently, the medium was completely removed and fresh DMEM-F12 containing 10% FBS and 0.1% DMSO (control; n=3 ) or TPHP at the concentration of 1–20,000 nM ( n=3 per group) was added. After a further 24-h incubation, the cells were washed with phosphate-buffered saline (PBS) and then incubated with serum-free medium containing ApoA-I ( 20μg/mL ) or high-density lipoprotein (HDL; 50μg/mL ) for 4 h. Then the medium was collected, and the cells were lysed with a cell lysis buffer. NBD-cholesterol in the medium and cell lysis buffer were measured, respectively, using a Tecan Infinite® M1000Pro Microplate Reader (Tecan Group Ltd.) at 485-nm excitation wavelength and 535-nm emission wavelength. Cholesterol efflux was expressed as a percentage of fluorescence in the medium relative to the total amount of fluorescence.
All experiments related to animals were approved by the institutional animal care and use committee of Peking University and followed the guidelines for animal experiments of the university as well as for experimental animals in China. […] Body weight (BW) was measured every week during the dosing period. […]

O=P(Oc1ccccc1)(Oc1ccccc1)Oc1ccccc1 [TPHP, triphenyl phosphate]
Intensity of foam cell staining relative to control (RAW264.7 macrophages; 100 nM, p<0.01): 1.64±0.02 fold
Intensity of foam cell staining relative to control (RAW264.7 macrophages; 1,000 nM, p<0.01): 1.67±0.14 fold
Intensity of foam cell staining relative to control (RAW264.7 macrophages; 5,000 nM, p<0.05): 1.78±0.31 fold
Intensity of foam cell staining relative to control (RAW264.7 macrophages; 10,000 nM, p<0.05): 2.08±0.45 fold
Intensity of foam cell staining relative to control (RAW264.7 macrophages; 20,000 nM, p<0.05): 2.09±0.52 fold
ApoA-I-mediated cholesterol efflux in peritoneal macrophages [1]: Significant inhibition
HDL-mediated cholesterol efflux in peritoneal macrophages [1]: Significant inhibition

Reference: publication PMC6927504, “Screening of House Dust from Chinese Homes for Chemicals with Liver X Receptors Binding Activities and Characterization of Atherosclerotic Activity Using an in Vitro Macrophage Cell Line and ApoE^−/− Mice” (Environmental Health Perspectives, 2019)
